In patent US20190071416A1, “COMPOUNDS FOR TREATMENT OF CANCER AND EPIGENETICS” (Agency For Science, Technology and Research, priority 2015, published 2019) one finds IC50 data, which are given here for 25 compounds.

This test addresses T1, SMYD3 (Homo sapiens, UniProt Q9H7B4).
T1 sequence (Q9H7B4 1-428): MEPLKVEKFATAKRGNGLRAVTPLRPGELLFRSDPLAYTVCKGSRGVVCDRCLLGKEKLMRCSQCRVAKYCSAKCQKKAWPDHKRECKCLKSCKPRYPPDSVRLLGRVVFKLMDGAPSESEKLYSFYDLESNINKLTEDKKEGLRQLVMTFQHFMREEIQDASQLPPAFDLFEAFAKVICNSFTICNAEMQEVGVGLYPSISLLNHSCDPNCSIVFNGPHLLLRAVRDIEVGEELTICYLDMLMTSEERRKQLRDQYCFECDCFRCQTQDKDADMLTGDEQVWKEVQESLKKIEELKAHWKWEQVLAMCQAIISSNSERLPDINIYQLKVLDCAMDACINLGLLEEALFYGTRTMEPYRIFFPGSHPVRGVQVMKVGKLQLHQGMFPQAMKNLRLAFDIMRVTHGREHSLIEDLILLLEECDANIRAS
As to the kind of experiment: SMYD3 biochemical assay (MTase-Glo, MAP3K2 peptide substrate). The conditions noted are these: Table 3; MTase assay, MAP3K2 peptide substrate; read-out: IC50. In outline: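 Luminescent readout of SAH production (coupled SAH→ATP conversion, MTase-Glo) after SMYD3 reacted 30 min at room temperature with 1.0 µM SAM and 10 µM MAP3K2 peptide, both final. Non-linear regression gave IC50 values.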

One may read the IC50 as the midpoint of a concentration-inhibition curve. For `CCCOC(=O)N1CCN(C(=O)c2ccc3c(Cl)c(C)c(-c4ccccc4)nc3c2)[C@@H](C)C1` [B016, Propyl (S)-4-(4-chloro-3-methyl-2-phenylquinoline-7-carbonyl)-3-methylpiperazine-1-carboxylate], the IC50 was determined as 150 nM.
As to `CCCOC(=O)N1CCN(C(=O)c2ccc3c(Cl)cc(-c4ccc(C(=O)N(C)C)cc4)nc3c2)C[C@H]1C` [B082, Propyl (R)-4-(4-chloro-2-(4-(dimethylcarbamoyl)phenyl)quinoline-7-carbonyl)-2-methylpiperazine-1-carboxylate], the IC50 turned out to be 690 nM.
Consider `CCCOC(=O)N1CCN(C(=O)c2ccc3c(Cl)cc(-c4cccnc4)nc3c2)CC1` [B001, Propyl 4-(4-chloro-2-(pyridin-3-yl)quinoline-7-carbonyl)piperazine-1-carboxylate], for which the IC50 came out at 2400 nM.
Turning to `CCCOC(=O)N1CCN(C(=O)c2ccc3c(Cl)cc(-c4ccc(C(=O)NC)c(C)c4)nc3c2)CC1` [B236, Propyl 4-(4-chloro-2-(3-methyl-4-(methylcarbamoyl)phenyl)quinoline-7-carbonyl)piperazine-1-carboxylate], the IC50 is 360 nM.
Regarding `CCCOC(=O)N1CCN(C(=O)c2ccc3c(Cl)c4c(nc3c2)CCC(CC(=O)OC)C4)C[C@@H]1C` (stereo partly drawn) [A062, Propyl (2S)-4-(9-chloro-7-(2-methoxy-2-oxoethyl)-5,6,7,8-tetrahydroacridine-3-carbonyl)-2-methylpiperazine-1-carboxylate], the IC50 came out at 210 nM.
Take `CCCOC(=O)N1CCN(C(=O)c2ccc3c(Cl)c4c(nc3c2)CCCC4)C(CC(=O)OC)C1` (stereo not shown) [A070, Propyl 4-(9-chloro-5,6,7,8-tetrahydroacridine-3-carbonyl)-3-(2-methoxy-2-oxoethyl)piperazine-1-carboxylate]: the IC50 is 2600 nM.
Turning to `CCCOC(=O)N1CCN(C(=O)c2ccc3c(Cl)cc(-c4ccc(F)cc4)nc3c2)CC1` [B065, Propyl 4-(4-chloro-2-(4-fluorophenyl)quinoline-7-carbonyl)piperazine-1-carboxylate], the IC50 was 560 nM.
Regarding `CCCOC(=O)N1CCN(C(=O)c2ccc3c(Cl)c4c(nc3c2)CCCC4)[C@H](C)C1` [A011, Propyl (R)-4-(9-chloro-5,6,7,8-tetrahydroacridine-3-carbonyl)-3-methylpiperazine-1-carboxylate], the IC50 was determined as 300 nM.
With `CCCOC(=O)N1CCN(C(=O)c2ccc3c(Cl)cc(-c4cccc(S(N)(=O)=O)c4)nc3c2)CC1` [B117, Propyl 4-(4-chloro-2-(3-sulfamoylphenyl)quinoline-7-carbonyl)piperazine-1-carboxylate], the IC50 worked out at 920 nM.
On to `CCCOC(=O)N1CCN(C(=O)c2ccc3c(Cl)cc(-c4ccc(OC)c(F)c4)nc3c2)CC1` [B165, Propyl 4-(4-chloro-2-(3-fluoro-4-methoxyphenyl)quinoline-7-carbonyl)piperazine-1-carboxylate], for which the IC50 turned out to be 150 nM.
`CCCOC(=O)N1CCN(C(=O)c2ccc3c(Cl)c4c(nc3c2)CC(c2nccs2)CC4)C[C@H]1C` (stereo partly drawn) [A129, Propyl (2R)-4-(9-chloro-6-(thiazol-2-yl)-5,6,7,8-tetrahydroacridine-3-carbonyl)-2-methylpiperazine-1-carboxylate]: the IC50 worked out at 94 nM.
On to `CCCOC(=O)N1CCN(C(=O)c2ccc3c(Cl)c4c(nc3c2)CCC(CN(C)C)C4)CC1` (stereo not shown) [A068, Propyl 4-(9-chloro-7-((dimethylamino)methyl)-5,6,7,8-tetrahydroacridine-3-carbonyl)piperazine-1-carboxylate], for which the IC50 is 1200 nM.
`CCCOC(=O)N1CCN(C(=O)c2ccc3c(Cl)cc(-c4cc(C)c5[nH]ncc5c4)nc3c2)CC1` [B186, Propyl 4-(4-chloro-2-(7-methyl-1H-indazol-5-yl)quinoline-7-carbonyl)piperazine-1-carboxylate]: the half-inhibitory concentration (IC50) is 140 nM.
For the compound `CCCOC(=O)N1CCN(C(=O)c2ccc3c(Cl)c4c(nc3c2)CCCC4)CC1COC(=O)CCC` (stereo not shown) [A061, Propyl 2-((butyryloxy)methyl)-4-(9-chloro-5,6,7,8-tetrahydroacridine-3-carbonyl)piperazine-1-carboxylate], the IC50 was 4100 nM.
Regarding `CCCOC(=O)N1CCN(C(=O)c2ccc3c(Cl)cc(-c4ccc(CF)cc4)nc3c2)[C@@H](C)C1` [B161, Propyl (S)-4-(4-chloro-2-(4-(fluoromethyl)phenyl)quinoline-7-carbonyl)-3-methylpiperazine-1-carboxylate], the IC50 came to 330 nM.
Take `CCCOC(=O)N1CCN(C(=O)c2ccc3c(Cl)cc(-c4cccc(CN(C)C)c4)nc3c2)CC1` [B112, Propyl 4-(4-chloro-2-(3-((dimethylamino)methyl)phenyl)quinoline-7-carbonyl)piperazine-1-carboxylate]: the IC50 is 140 nM.
As to `CCCOC(=O)N1CCN(C(=O)c2ccc3c(Cl)cc(-c4ccc(C(=O)NC)c(F)c4)nc3c2)C[C@H]1C` [B216, Propyl (R)-4-(4-chloro-2-(3-fluoro-4-(methylcarbamoyl)phenyl)quinoline-7-carbonyl)-2-methylpiperazine-1-carboxylate], the IC50 turned out to be 230 nM.
Turning to `CCCOC(=O)N1CCN(C(=O)c2ccc3c(Cl)c4c(nc3c2)CCCC4)C(C(=O)OC)C1` (stereo not shown) [A051, 3-Methyl 1-propyl 4-(9-chloro-5,6,7,8-tetrahydroacridine-3-carbonyl)piperazine-1,3-dicarboxylate], the IC50 is 650 nM.
In the case of `CCCOC(=O)N1CCN(C(=O)c2ccc3c(Cl)cc(-c4ccc(F)c(CN)c4)nc3c2)CC1` [B172, Propyl 4-(2-(3-(aminomethyl)-4-fluorophenyl)-4-chloroquinoline-7-carbonyl)piperazine-1-carboxylate], the IC50 stood at 39 nM.
Consider `CCCOC(=O)N1CCN(C(=O)c2ccc3c(Cl)c4c(nc3c2)CC(c2cc(C)ccn2)CC4)CC1` (stereo not shown) [A132, Propyl 4-(9-chloro-6-(4-methylpyridin-2-yl)-5,6,7,8-tetrahydroacridine-3-carbonyl)piperazine-1-carboxylate], for which the IC50 was determined as 210 nM.
Consider `CCCOC(=O)N1CCN(C(=O)c2ccc3c(Cl)cc(-c4ccc(CO)cc4)nc3c2)CC1` [B255, Propyl 4-(4-chloro-2-(4-(hydroxymethyl)phenyl)quinoline-7-carbonyl)piperazine-1-carboxylate], for which the IC50 came to 28 nM.
On to `CCCOC(=O)N1CCN(C(=O)c2ccc3c(Cl)c(C)c(-c4ccccc4)nc3c2)C[C@@H]1C` [B006, Propyl (S)-4-(4-chloro-3-methyl-2-phenylquinoline-7-carbonyl)-2-methylpiperazine-1-carboxylate], for which the IC50 is 160 nM.
Take `CCCOC(=O)N1CCN(C(=O)c2ccc3c(Cl)cc(-c4ccc(S(N)(=O)=O)cc4)nc3c2)CC1` [B103, Propyl 4-(4-chloro-2-(4-sulfamoylphenyl)quinoline-7-carbonyl)piperazine-1-carboxylate]: the IC50 was found to be 130 nM.
On to `CCCOC(=O)N1CCN(C(=O)c2ccc3c(Cl)cc(-c4ccc(C(=O)NC)c(F)c4)nc3c2)[C@@H](C)C1` [B240, Propyl (S)-4-(4-chloro-2-(3-fluoro-4-(methylcarbamoyl)phenyl)quinoline-7-carbonyl)-3-methylpiperazine-1-carboxylate], for which the IC50 is 250 nM.
`CC(C)COC(=O)N1CCN(C(=O)c2ccc3c(Cl)c4c(nc3c2)CCCC4)CC1` [A021, Isobutyl 4-(9-chloro-5,6,7,8-tetrahydroacridine-3-carbonyl)piperazine-1-carboxylate]: the IC50 is 840 nM.
